Test results reported in the METLIN SMRT retention time set (Domingo-Almenara et al. 2019).

Assay: gradient 5% acetonitrile 3 min, to 50% in 2 min, to 85% in 15 min, held 3 min, 100 µL/min
Details: column: Zorbax Extend-C18 2.1 x 50 mm; eluents: water / acetonitrile, 0.1% formic acid
In short: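 A Zorbax Extend-C18 column (2.1 × 50 mm, 1.8 μm) run at 100 μL/min with water and acetonitrile, both containing 0.1% formic acid, separated mixtures of ~100 pure standards. The HPLC was coupled to a quadrupole time-of-flight mass spectrometer operated in positive and negative ionization mode, with dead and dwell volumes of 40 μL and 900 μL. Each retention time was taken from a computationally picked adduct peak that was then manually inspected.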

Row | RP-LC retention time | Structure (SMILES)
1 | 674 s | Cn1cnc(S(=O)(=O)N2CCC(C(=O)Nc3cccc(C#N)c3)CC2)c1
2 | 748 s | O=C1NC2(CCN(C(=O)c3ccccc3)CC2)N=C1c1cccc(F)c1
3 | 662 s | CC1(C)C(=O)NCCN1C(=O)c1cccc(C(F)(F)F)c1
4 | 613 s | O=C(NC1CCCCCC1)C1CCN(C(=O)C2Sc3ccccc3NC2=O)CC1 (configuration not stated)
5 | 906 s | Cc1ccc(-c2nnc(CC(=O)NCCc3ccc(Cl)cc3)o2)cc1
6 | 626 s | COc1ccc(N2CCN(C(=O)C3CCc4nc(N5CCCC5)ncc4C3)CC2)cc1 (configuration not stated)
7 | 626 s | CC(C)N1CCN(C(=O)c2cnc(-c3ccccc3)nc2-c2ccncc2)CC1
8 | 541 s | CC(=O)N1CCN(c2nc3c(s2)CC(C(=O)Nc2ccccc2)CC3)CC1 (configuration not stated)
9 | 887 s | Cc1cc2c(c(=O)n(-c3ccc(F)cc3)c(=O)n2CC(=O)Nc2cccc(Cl)c2)n1C
10 | 617 s | CN(C)CCCN(C(=O)c1ccc(Br)s1)c1nc2c(F)cccc2s1
11 | 610 s | Cc1cc(N2CCN(C)CC2)nc2ccc(NC(=O)Nc3ccc(Cl)cc3)cc12
12 | 950 s | CCN(CC)S(=O)(=O)c1cccc(-c2nnc(-c3ccccc3OC)o2)c1
13 | 634 s | CC1CCN(CCCNC(=O)c2nc(CCS(=O)(=O)c3ccc(F)cc3)no2)CC1
14 | 832 s | COC(=O)c1cnc2nc(-c3ccccc3)nn2c1C
15 | 1040 s | CCn1cc(C2=CCN(S(=O)(=O)c3cccc(C)c3)CC2)c2cccnc21
16 | 963 s | Cc1ccc(C)c(NC(=O)N2CCCC(C)(C(=O)NCc3ccc(F)cc3)C2)c1 (configuration not stated)
17 | 793 s | O=C(Cc1cccs1)Nc1cc(F)c2nc(N3CCOCC3)ccc2c1
18 | 970 s | Cc1cc2nc(C(=O)Nc3cccc(F)c3)cc(C)n2n1
19 | 820 s | CCc1nc2cc(N3CCC(C(=O)NCc4ccccc4)CC3)cnc2nc1CC
20 | 730 s | COC(=O)c1c(C)[nH]c(C(=O)N2CCCC(C(=O)NCCC(C)C)C2)c1C (configuration not stated)
21 | 741 s | COc1ccc(C(=O)N2C[C@@H]3C[C@H]2C[C@@H]3NC(=O)c2cccs2)c(C)c1
22 | 802 s | CC1=C(c2ccc(F)cc2)S(=O)(=O)N=C1N1CCCN(C(=O)c2ccccc2)CC1
23 | 754 s | O=C(COc1ccc(NC(=O)C2CC2)cn1)NCc1cc(F)cc(F)c1

Row | RP-LC retention time | Structure (SMILES)
24 | 750 s | Cn1c(=O)c2nc(S(=O)(=O)CCC(=O)Nc3cccc(Br)c3)n(C)c2n(C)c1=O
25 | 880 s | Cc1ccc(Cn2nc3c(S(=O)(=O)N4CCCC4)cccn3c2=O)cc1
26 | 597 s | Cc1ccc(-c2[nH]ncc2CN2CCC3(CC2)CC(C)(O)CCO3)cc1 (configuration not stated)
27 | 606 s | Cc1nn(CC(=O)N2CCCN(C)CC2)c(=O)c2nc(-c3ccccc3)sc12
28 | 804 s | COc1ccc(-c2noc(-c3nn(-c4cccc(F)c4)ccc3=O)n2)cc1OC
29 | 865 s | O=S(=O)(c1ccccc1F)N1CCC(OCc2noc(C3CCCO3)n2)CC1 (configuration not stated)
30 | 730 s | Cc1cccc(NC(=O)N2CCC(N3CCN(Cc4ccccc4)C(=O)C3=O)CC2)c1C
31 | 646 s | COc1ccc(S(=O)(=O)CCc2noc(C(=O)NCCN3CCC(C)CC3)n2)cc1
32 | 1060 s | CC(C)Cn1cc(CCNS(=O)(=O)c2ccc(Cl)c(Cl)c2)c2cccnc21
33 | 719 s | CCCCNC(=O)CC1CCN(C(=O)c2[nH]c(C)cc2C)CC1
34 | 680 s | Cc1ccc(C2=NC3(CCN(C(=O)c4cnccn4)CC3)ON2)cc1
35 | 1180 s | O=c1c2scc(-c3ccc(Br)cc3)c2ncn1Cc1ccc(F)cc1
36 | 954 s | CC1=NS(=O)(=O)N(C)C=C1C(=O)OCc1nc(-c2ccccc2Cl)no1
37 | 954 s | O=C(CSc1ncnc2c1cnn2-c1ccc(Cl)cc1)NCc1ccco1
38 | 726 s | Cc1ccc(NC(=O)c2cccc3c2SCCC3=O)nc1
39 | 612 s | CCOc1cccc(C2CC(c3ccccc3)=NC3(CCN(C(C)C)CC3)N2)c1O (configuration not stated)
40 | 561 s | CCn1cc(C)c(C(=O)O)c1CC(=O)NCCN1CCN(C)CC1
41 | 705 s | CN(Cc1ccco1)C(=O)c1nc2ccccn2c1-c1ccc(F)cc1
42 | 812 s | COc1ccc(Nc2c(-c3ccc(N(C)C)cc3)nc3cnc(Br)cn23)cc1OC
43 | 1020 s | COc1ccccc1C(=O)N1CCCC1c1nc(-c2ccc(F)cc2F)no1 (configuration not stated)
44 | 834 s | Cc1sc2ccn(C)c(=O)c2c1C(=O)NCc1ccccc1Br
45 | 1010 s | Cc1ccc(C)c(-c2cc3c4nn(CC(=O)N(C)c5ccccc5)c(=O)n4ccn3n2)c1
46 | 633 s | NCC(O)C1CCCCCCC1 (configuration not stated)

Row | RP-LC retention time | Structure (SMILES)
47 | 1010 s | CCOC(=O)COC(=O)c1cn(-c2ccc(OC)cc2)c(=O)c2ccccc12
48 | 891 s | COc1ccc(CNC(=O)C2CN(S(=O)(=O)C3CC3)CC23CCCCC3)cc1 (configuration not stated)
49 | 896 s | CC(C)(C)c1noc(-c2ccc(-n3cnc(C(=O)NCC4CC4)c3)nc2)n1
50 | 716 s | CCn1ccc2sc(C)c(C(=O)NCc3ccc(OC)c(OC)c3)c2c1=O
51 | 1270 s | CCOC(=O)c1cc(C2CC2)nc2c1c(=O)n(Cc1ccc(Br)cc1F)c(=O)n2C
52 | 600 s | Cc1ccc(CNC(=O)C(=O)NCCO)cc1
53 | 1070 s | O=S(=O)(c1cc(F)ccc1F)N1CCc2nc(-c3ccccc3)ncc2C1
54 | 822 s | Cc1cccc(NS(=O)(=O)c2cc(-c3[nH]ncc3C(=O)N3CCCCC3)oc2C)c1C
55 | 1020 s | O=C(CSc1nnc(-c2cccc(Br)c2)o1)c1ccc([N+](=O)[O-])cc1
56 | 694 s | CCn1cnnc1C1CCCCN1S(=O)(=O)c1cccs1 (configuration not stated)
57 | 655 s | COc1ccc(OCC(=O)N2CCN(c3cc(=O)n(C)c(=O)n3C)CC2)cc1
58 | 692 s | O=C(CN1CCN(Cc2ccc(F)cc2Cl)C1=O)NC1CC1
59 | 856 s | CCCN(C(=O)Nc1cc(C)cc(C)c1)c1nc(-c2ccc(C3CCCCC3)cc2)cs1
60 | 846 s | O=C(NCCc1csc(-c2ccccc2)n1)C1CCN(C(=O)c2cccc(Cl)c2)CC1
61 | 844 s | Cc1sc(NC(=O)c2ccco2)nc1-c1ccc2c(c1)N(C)C(=O)CO2
62 | 1040 s | COc1ccc(-c2noc(C3CC(=O)N(c4ccc(Cl)cc4)C3)n2)cc1 (configuration not stated)
63 | 753 s | Cc1noc(C)c1CNC(=O)c1nccc2ccccc12
64 | 619 s | COc1ccc(Nc2c(-c3ccc(N4CCOCC4)cc3)nc3ncccn23)cc1OC
65 | 975 s | CCc1cccc(NC(=O)Cn2c(=O)n(-c3ccc(C)cc3)c(=O)c3c2cc(C)n3C)c1
66 | 801 s | COc1cc(NC(=O)NC2CCN(c3nc4ccccc4n(C)c3=O)CC2)cc(OC)c1
67 | 990 s | O=C(Nc1cccc2c1CCCC2)C1CCN(S(=O)(=O)c2cccc3nonc23)CC1
